From patent US9102636B2, “Analgesic compounds, compositions, and uses thereof” (Galleon Pharmaceuticals, Inc., priority 2010, dated 2015)
Several values for one entry are separate records, joined by “and”; a condition that tells them apart may be missing. Equal values may be shown once. Entries after “also recorded” stand apart in the source; their conditions may differ.

Columns and labels:
[1] = tested on: Carrageenan-induced thermal hyperalgesia; test: Carrageenan-induced thermal hyperalgesia (Hargreaves); type: in vivo, rat; conditions: for Paw withdrawal latency: cut-off 40 s, individual animals
[2] = L-012 assay: inhibition of SIN-1 generated peroxynitrite induced luminescence/fluorescence of L-012; type: biochemical; conditions: 15 minute time point; average of three plates
Procedure: Luminol like compound “L-012” is a chemilumescent probe that is activated by the presence of a ROS and/or RNS such as peroxynitrite. In this assay L-012 was oxidized by the addition of 3-Morpholino-sydnonimine (“SIN-1”), a known peroxynitrite generator. The emitted fluorescence was directly proportional to the concentration of SIN-1. The compounds of the invention were then assessed for their ability to scavenge peroxynitrite by blocking the increase of peroxynitrite induced fluorescence. Concentrations of compound producing 50% inhibition of the fluorescence signal (IC50 values) were calculated by testing the compounds of the invention at various concentrations and averaging the IC50 of three plates.
The following solutions were added to white polystyrene, non-sterile 96-well plate (Costar #3912): 196 μL of 50 μM L-012; 2 μL of the test compound; and 24 μL of 500 mM SIN-1. Fresh stock of 50 μM L-012 in PBS pH 7.4 was made for each 96 well plate that was analyzed. The plates were read in a FlexStation3 (Molecular Devices) using the luminescent mode at 37° C. for 30 min, with a measurement every 30 seconds and an integration time of 100 msec.
Luminescence signal was recorded by the FlexStation3 kinetically at 37° C. for 30 minutes, with a measurement every 30 seconds and an integration time of 100 msec. The data in rows A and H were dropped from each plate to exclude the possibility of an ‘edge effect’. Thus, each test compound had 3 replicates per plate.

[3] = tested on: Carrageenan-induced thermal hyperalgesia; test: Carrageenan-induced thermal hyperalgesia (Hargreaves); type: in vivo, rat; conditions: for Paw withdrawal latency: Pre-Cg, individual rats, FIG. 21A
Procedure: The effect of Compound 2 in the rat carrageenan model of acute inflammatory pain was evaluated. The intraplantar carrageenan model of acute inflammatory pain in the rat results in behaviors similar to that observed in patients and has been widely used to assess novel pharmacological treatments (Whiteside et al., 2005, J. Pharmacol. Exp. Ther. 314:1234-1240). The objective of this study was to evaluate the ability of Compound 2 to reverse or prevent development of thermal hyperalgesia and edema in the rat carrageenan model of acute inflammatory pain. The positive control was indomethacin (Sigma, St. Louis), and the negative control was vehicle (0.5% methyl cellulose). […] The Hargreaves apparatus was obtained from Ugo Basile, Italy, and the lamba-carrageenan was obtained from Sigma, St. Louis. For this assay, paw withdrawal latency to a thermal stimulus was assessed using a radiant heat source (Ugo Basile, Italy) aimed at the plantar surface of the left hind paw (Hargreaves test). […] Paw volume was measured by displacement of water and assuming a tissue density equal to that of water. Baseline latencies were taken prior to carrageenan administration and re-assessed 4 h later. Compound 2 or vehicle was administered (10 and 30 mg/kg, p.o.) 3 hrs after carrageenan (curative) and behavior assessed 1 hr later. […] Indomethacin (positive control, 30 mg/kg p.o.) was administered prior to carrageenan and behavior assessed 4 hrs post-carrageenan. […] After induction of anesthesia, the injection site was prepared in a sterile manner and 50 μl of a 2% Jamba-carrageenan was injected. After injection, animals were weighed and allowed to recover before being returned to their home cages. Statistical significance was determined on untransformed data using a two-way analysis of variance (Graphpad Prism, NC). Significant main effects were analyzed further by subsequent Bonferronni post-hoc test. The level of significance was set at p<0.05. Data are shown as mean±S.E.M. (with an asterisk to denote significance as compared to vehicle treated controls).

[4] = tested on: fentanyl analgesia (Hargreaves); test: Preservation of fentanyl analgesia in Hargreaves thermal plantar model; type: in vivo; conditions: rat; compound IV 15 min before fentanyl 25 μg/kg; FIG. 2
[5] = tested on: FCA induced edema; test: FCA induced edema (paw volume); type: in vivo, rat
Procedure: Compound 2 was evaluated in the rat Freund's complete adjuvant (FCA) model of inflammatory pain. The rat Freund's complete adjuvant (FCA) intraplantar model of inflammatory pain produces behaviors similar to those observed in patients and has been widely used to assess novel pharmacological treatments (Lam et al., 2008, J Ethnopharmacol. 120:44-50). The positive control was celecoxib (TRC, Montreal), and the negative control was vehicle (0.5% methyl cellulose, in phosphate buffered saline). […] The Hargreaves apparatus was obtained from Ugo Basile, Italy. The Freund's complete adjuvant was obtained from Sigma, St. Louis, and the electronic von frey was obtained from Stoelting, Ill. For this assay, paw withdrawal latency to a thermal stimulus was assessed using a radiant heat source (Ugo Basile, Italy) aimed at the plantar surface of the left hind paw (Hargreaves test; […] Paw withdrawal thresholds to a non-noxious tactile stimulus was assessed using an electronic von Frey apparatus that presented an increasing mechanical force to the plantar surface of the hind paw. Paw volume was measured by displacement of water and assuming a tissue density equal to that of water. […] Celecoxib (30 mg/kg p.o.) served as the positive control. […] After induction of anesthesia, the injection site was prepared in a sterile manner and 100 μl of a 50% suspension of FCA injected. After injection, animals were weighed and allowed to recover before being returned to their home cages. Statistical significance was determined on untransformed data using a two-way analysis of variance (Graphpad Prism, NC). Significant main effects were analyzed further by subsequent Bonferronni post-hoc test. The level of significance was set at p<0.05. Data are shown as mean±S.E.M. (with an asterisk to denote significance as compared to vehicle treated controls).

[6] = Oral pharmacokinetics (Tmax) in rats; conditions: rat, in vivo, given orally
[7] = tested on: capsaicin-mediated hyperalgesia; test: Capsaicin-induced hyperalgesia; type: in vivo; conditions: rat; IV prior to intra-plantar capsaicin; FIG. 8

CC1(C)SC(Nc2ccccc2O)=N[C@@H]1C(=O)O [Compound 2, (R)-2-(2-hydroxyphenylamino)-thiazoline-5,5-dimethyl-4-carboxylic acid]
Paw withdrawal latency ([1]; compound 2 10 mg/kg p.o. preemptive (15 minutes prior to carrageenan), baseline prior to carrageenan (first line), 10 mg/kg): 20.94 s and 40 s and 25.09 s and 26.96 s and 13.66 s and 23.25 s
Paw withdrawal latency ([1]; compound 2 10 mg/kg p.o. preemptive, 4 hours post carrageenan (second line), 10 mg/kg): 8.1 s and 5.07 s and 20.71 s and 12.18 s and 11.94 s and 9.38 s
Paw withdrawal latency ([1]; compound 2 30 mg/kg p.o. preemptive, 4 hours post carrageenan (second line), 30 mg/kg): 11.57 s and 16.63 s and 6.81 s and 11 s and 32.38 s and 11.6 s
Paw withdrawal latency ([1]; compound 2 30 mg/kg p.o. preemptive, baseline prior to carrageenan (first line), 30 mg/kg): 27.75 s and 15.78 s and 35.57 s and 23.26 s and 18.37 s and 25.78 s
carrageenan-induced thermal hyperalgesia, preemptive (finding in words) ([1]; rat, 10 and 30 mg/kg p.o. 15 minutes prior to carrageenan): did not significantly prevent
IC50 [2]: 130 nM
Paw withdrawal latency ([3]; compound 2 10 mg/kg group, 10 mg/kg): 19.8 s and 15.34 s and 22.07 s and 17.39 s and 31.03 s and 14.07 s
Paw withdrawal latency ([3]; compound 2 30 mg/kg group, 30 mg/kg): 23.87 s and 12.41 s and 16.08 s and 28.86 s and 18.1 s and 22.77 s and 17.58 s
carrageenan-induced thermal hyperalgesia, curative (finding in words) ([3]; rat, 10 and 30 mg/kg p.o. 3 hours post-carrageenan): without significantly reversing thermal hyperalgesia; also recorded: did not significantly reverse thermal hyperalgesia
preservation of fentanyl analgesia, Hargreaves thermal hyperalgesia model [4]: dose-dependently preserves fentanyl analgesia
Paw volume ([5]; 24 hrs post, compound 2 10 mg/kg p.o. preemptive, FIG. 20A, 10 mg/kg): 2.7 mL and 2.6 mL and 3.1 mL
Paw volume ([5]; 24 hrs post, compound 2 30 mg/kg p.o. preemptive, FIG. 20A, 30 mg/kg): 2.1 mL and 2.9 mL and 3 mL
Paw volume ([5]; 48 hrs post, compound 2 10 mg/kg p.o. preemptive, FIG. 20A, 10 mg/kg): 2.6 mL and 2.5 mL and 2.9 mL and 3.2 mL
Paw volume ([5]; 48 hrs post, compound 2 30 mg/kg p.o. preemptive, FIG. 20A, 30 mg/kg): 2.5 mL and 2.8 mL and 3.1 mL and 2.7 mL and 2.9 mL
Paw volume ([5]; FCA/Compound 2, 10 mg/kg p.o., dosed 24 hours post-FCA, Pre-FCA (baseline), individual animals): 1.7 mL (2×) and 1.6 mL (2×) and 1.8 mL (3×) and 1.5 mL
Paw volume ([5]; FCA/Compound 2, 10 mg/kg p.o., 1 hr (D2), individual animals): 2.7 mL (3×) and 2.9 mL and 2.5 mL and 2.8 mL and 2.3 mL and 3.2 mL
Paw volume ([5]; FCA/Compound 2, 10 mg/kg p.o., 1 hr, individual animals): 2.9 mL (2×) and 3.1 mL (2×) and 2.7 mL (2×) and 2.8 mL and 3 mL
Paw volume ([5]; FCA/Compound 2, 10 mg/kg p.o., 3 hrs (D2), individual animals): 2.7 mL (2×) and 3 mL and 2.6 mL and 2.5 mL and 2.8 mL and 2.4 mL and 3.2 mL
Paw volume ([5]; FCA/Compound 2, 10 mg/kg p.o., 3 hrs, individual animals): 2.9 mL (4×) and 3.1 mL and 2.7 mL and 2.4 mL and 3.2 mL
Paw volume ([5]; FCA/Compound 2, 10 mg/kg p.o., Pre-Drug (D2), individual animals): 2.7 mL (2×) and 3 mL and 2.6 mL (2×) and 2.8 mL and 2.4 mL and 3.2 mL
Paw volume ([5]; FCA/Compound 2, 10 mg/kg p.o., Pre-Drug, individual animals): 3.1 mL (2×) and 2.8 mL (2×) and 2.9 mL and 3 mL and 2.7 mL and 3.4 mL
Paw volume ([5]; FCA/Compound 2, 30 mg/kg p.o., dosed 24 hours post-FCA, Pre-FCA (baseline), individual animals): 1.7 mL (4×) and 1.8 mL (2×) and 1.5 mL and 1.9 mL
Paw volume ([5]; FCA/Compound 2, 30 mg/kg p.o., 1 hr, individual animals): 2.6 mL
Paw volume ([5]; FCA/Compound 2, 30 mg/kg p.o., Pre-Drug, individual animals): 2.8 mL (2×) and 3 mL (2×) and 2.9 mL and 3.2 mL and 2.6 mL and 3.4 mL
Paw volume ([5]; Pre-FCA, compound 2 10 mg/kg p.o. preemptive group, individual rats, FIG. 20A, 10 mg/kg): 1.7 mL (2×) and 1.6 mL and 1.8 mL (2×) and 1.9 mL
Paw volume ([5]; Pre-FCA, compound 2 30 mg/kg p.o. preemptive group, individual rats, FIG. 20A, 30 mg/kg): 1.6 mL and 1.7 mL (2×) and 1.9 mL and 1.8 mL (2×)
FCA-induced edema (finding in words) ([5]; rat, 10 and 30 mg/kg p.o., preemptive and curative (24 hours post-FCA)): did not have a statistically significant effect; also recorded: did not affect edema
Tmax [6]: 1 h
effect on capsaicin-mediated hyperalgesia [7]: inhibits capsaicin-mediated hyperalgesia
